Literature values in paper PMC8146789, “20-Hydroxyecdysone, from Plant Extracts to Clinical Use: Therapeutic Potential for the Treatment of Neuromuscular, Cardio-Metabolic and Respiratory Diseases” (Biomedicines, 2021).

Assays:
[1] = set-up: method as in doi:10.1055/s-0032-1320272; conditions: overweight, 2 × 50 mg/day; ref [170]; cited from earlier work
[2] = set-up: method as in doi:10.1016/0924-977X(96)83007-0; conditions: 7.5–10 mg/day, 1 month; ref [165]; cited from earlier work
C2C12 myotubes = test system: C2C12 myotubes; set-up: method as in PMID 24974955; conditions: 20E 1 μM; ref [54]; cited from earlier work
[3] = cited from earlier work
[4] = set-up: method as in PMID 4650153; conditions: mice, oral; ref [122]; cited from earlier work
bullfrogs = conditions: up to 600 mg/kg in the lymph sinus, ref [121]; cited from earlier work
ERα = test system: ERα; set-up: method as in PMID 24974955; conditions: ref [54]; cited from earlier work
Erβ = test system: Erβ; set-up: method as in PMID 24974955; conditions: ref [54]; cited from earlier work
[5] = alcohols; cited from earlier work
rats = test system: rats; set-up: method as in ref [121] = [121]; 121. Ogawa S. Nishimoto N. Matsuda H. Pharmacology of ecdysones un vertebrates Invertebrate Endocrinology and Hormonal Heterophylly Burdette W.J. Springer Berlin, Germany 1974 341 344; conditions: ref [121]; cited from earlier work
[6] = humans, ingestion of 434 mg, ref [134]
[7] = humans, single oral intake of 20 mg, RIA and LC-MS

## CC(C)(O)CC[C@@H](O)[C@](C)(O)[C@H]1CC[C@@]2(O)C3=CC(=O)[C@@H]4C[C@@H](O)[C@@H](O)C[C@]4(C)[C@H]3CC[C@]12C [20E, 2β,3β,14α,20R,22R,25-hexahydroxy-5β-cholest-7-en-6-one]
[1]
  change in C-reactive protein: −38%
  change in body fat: −7.6%
  change in body weight: −1.3%
  change in total cholesterol: −17%
  change in triglycerides: −37%
  change in waist circumference: −3.2%
  muscle increase: +2.9%
[2]
  patients with improvement of libido and sexual activity: Improvement of libido and sexual activity in 75% of patients
C2C12 myotubes
  myotube diameter: enhanced myotube diameter
[3]; [6]
  total urinary excretion of 20E: 5 mg
  urinary excretion, of the ingested amount: approximately 1%
[3]; humans, ingestion of ca. 15 mg, ref Simon and Koolman [132]
  urinary peak level: approximately 0.5 μM
[3]; [7]
  time of urinary peak of detectable ecdysteroids: 3 to 4 h
  total quantity of detectable ecdysteroids in urine: 1 to 2 mg
[3]; in vivo
  effective half-time of elimination from the blood: 9 h
  effective half-time of elimination from the urine: 3.3 h
  time of plasma titre maximum: ca. 30 min
[4]
  bioavailability: low
  radioactivity crossing the intestinal tract, of that administered: < 2%
  route of elimination: essentially fecal
bullfrogs
  effects after administration: no effects were seen
ERα
  activation of ERE reporter gene: could be activated dose dependently
Erβ
  activation of ERE reporter gene: could be activated dose dependently
[5]
  solubility: highly soluble in alcohols
rats
  sex hormonal activity, anti-inflammatory or anabolic effects: did not have
